Entries after “also recorded” stand apart in the source; their conditions may differ.

The subject of data set [1] is HCT116. The data set can be described thus: SRB drug sensitivity, HCT116 parental cells. The format is cell-based. Conditions: Homo sapiens, HCT-116, 72 hours with agent.
The test system of data set [2] is HCT116/NR1. In words: SRB drug sensitivity, Compound-A-resistant HCT116/NR1. The format is cell-based, human. The text has this: An emerging colony was isolated and designated as HCT116/NR1.
Data set [3] has as its system PC13. In words: SRB drug sensitivity, PC-13 parental cells. Format: cell-based. Conditions: Homo sapiens, 72 hours with agent.
Data set [4] has as its system PC13/NR13. In words: SRB drug sensitivity, Compound-A-resistant PC-13/NR13. Format: cell-based, human.
Data set [5] concerns HeLaS3. In words: SRB drug sensitivity, HeLaS3 (Compound-A-sensitive). The format is cell-based. Conditions: Homo sapiens, HeLa S3, 72 hours with agent.
In data set [6] the test system is HeLa#7. In words: SRB drug sensitivity, spontaneously resistant HeLa#7. The format is cell-based, human.
Data set [7] concerns LY. In words: SRB drug sensitivity, LY parental fibroblasts. Format: cell-based. Conditions: Mus musculus, Fibroblast, 72 hours with agent.
The test system of data set [8] is LY/NR1. The data set can be described thus: SRB drug sensitivity, Compound-A-resistant LY/NR1. Format: cell-based, mouse. The text has this: A colony that grew under these conditions was isolated using a cloning ring (Asahi Techno Glass Corporation) and designated as LY/NR1.
The test system of data set [9] is LY/NR2. The data set can be described thus: SRB drug sensitivity, Compound-A-resistant LY/NR2. The format is cell-based, mouse. The text has this: An emerging colony was isolated as described above and designated as LY/NR2.
Data set [10] concerns PC-13/Vector. The data set can be described thus: SRB drug sensitivity, PC-13 transfected with vector alone. Format: cell-based. Conditions: Homo sapiens, average ± standard error of three independent experiments. As to the method:
(§1) Test cells in the logarithmic growth phase were dispensed into wells of 96-well plate at 1×10^3 cells/well. After subculture for 24 hours in a CO2 incubator, a serial diluted agent was added to each well. After further incubation for 72 hours, the cells were fixed with trichloroacetic acid (TCA) and the proteins in the cells were stained by 0.4% sulforhodamine B solution. The samples were eluted by 10 mM Tris-HCl for 1 hour, and each well was measured at 560 nm with a 450 nm reference, by a SPECTRAmax 250 plate reader (Molecular Devices Corp.).
(§2) PC-13 cells were transfected with the ABCG2 expression plasmids using Effectene Transfection Reagent (QIAGEN). The experiment was performed according to the attached procedural manual. As a control experiment, other PC-13 cells were transfected with vector alone without the ABCG2 sequence. The two experiments were conducted simultaneously. Two days after the transfection, the original media were replaced with selection media containing 0.2 mg/ml of Geneticin (GIBCO BRL). By culture for a long time under this condition, stable transfectant clones with the introduced plasmids were selected. Two weeks from the transfection, emerging colonies were picked and expression of ABCG2 in the cells was examined by Northern Blot analysis.

The test system of data set [11] is ABCG2. The data set can be described thus: SRB drug sensitivity, PC-13 transfected with ABCG2 (clone 2). The format is cell-based, human. Conditions: human; PC-13/ABCG2-2; average ± standard error of three independent experiments. As to the method: as §1, §2
The test system of data set [12] is PC-13/ABCG2-2. The description is as above. Format: cell-based, human. As to the method: as §1, §2
In data set [13] the test system is ABCG2. The data set can be described thus: SRB drug sensitivity, PC-13 transfected with ABCG2 (clone 3). Format: cell-based, human. Conditions: human; PC-13/ABCG2-3; average ± standard error of three independent experiments. As to the method:
as §1, §2

The test system of data set [14] is PC-13/ABCG2-3. The description is as above. Format: cell-based, human. As to the method:
as §1, §2

The test system of data set [15] is MCF-7/T8. The data set can be described thus: SRB drug sensitivity, MCF-7 with introduced ABCG2-482T. The format is cell-based, human. Conditions: MCF-7/T8 (ABCG2-482T). The method, then:
(§3) The full length human ABCG2 cDNA of the present invention prepared in Example 5 was inserted into a plasmid for expression in mammalian cells, followed by transfection of human breast cancer cells, MCF-7 cells, with the ABCG2 expression plasmid using Effectene Transfection Reagent (QIAGEN). Likewise, human breast cancer cells, MCF-7 cells, were transfected with a plasmid including the ABCG2-482T cDNA prepared in Example 10. The experiments were carried out according to an attached procedural manual. As a control experiment, the MCF-7 cells were also transfected with vector alone. The three experiments were conducted simultaneously. Two days from the transfection, the original media were replaced with selective media containing 900 μg/ml of Geneticin (GIBCO BRL). By culture over a prolonged term under this condition, stable transfectant clones with introduced plasmid were selected. Two to three weeks from the transfection, emerging colonies were picked and the expression of ABCG2 in the cells was examined by Northern Blot analysis. Northern Blot analysis was performed as described in Example 4: 8 μg of total RNA prepared from each clone using RNeasy mini kit (QIAGEN) was separated on a formaldehyde denatured agarose gel, followed by analysis using the human ABCG2 cDNA fragment of the present invention as a probe.
(§4) The drug sensitivity of the stable transfectant clones which were established from MCF-7 cells with introduced ABCG2- or ABCG2-482T-expression plasmid, was measured using SRB method as described in Example 2 and the sensitivity of each transfectant to drugs was shown as a relative resistance to the cells with introduced vector alone (FIG. 6).

In data set [16] the test system is MCF-7/R7. In words: SRB drug sensitivity, MCF-7 with introduced ABCG2 of the present invention. Format: cell-based, human. Conditions: MCF-7/R7 (ABCG2 of the present invention), FIG. 6. The method, then: as §3, §4
Data set [17] has as its system MCF-7/T8. The data set can be described thus: Mitoxantrone accumulation by flow cytometry in MCF-7/T8. The format is cell-based, human. Conditions: 20 μM Mitoxantrone, 90 min, FIG. 7-(b). The method, then:
(§5) The amount of accumulation of Mitoxantrone in the MCF-7 stable transfectants with introduced ABCG2 of the present invention or ABCG2-482T was measured as follows.
(§6) Cells seeded at 1.0×10^6 cells/well in a 6-well culture plate were incubated for overnight. The next day, the cells in a fresh medium containing 20 μM Mitoxantrone were cultured at 37° C. for 90 min in a CO2 incubator to incorporate the compound into the cells. After a lapse of 90 min, the cells were rapidly chilled on ice, washed once with PBS, detached using 2.5% trypsin. The lysate was centrifuged at 400×g at 4° C. for 3 min to collect the cells. The collected cells were suspended in Hank's Balanced Salt Solutions containing 1% BSA and subjected to fluorimetry of the compound using a flow cytometer, Epics Elite (Beckman Coulter, Inc.). The value was indicated as Intracellular Accumulation (FIG. 7-(b)).

The subject of data set [18] is MCF-7/R7. In words: Mitoxantrone accumulation by flow cytometry in MCF-7/R7. The format is cell-based, human. Conditions: 20 μM Mitoxantrone, 90 min, FIG. 7-(b). The method, then:
as §5, §6

The test system of data set [19] is PC-13 cell lines with introduced ABCG2. The data set can be described thus: SRB drug sensitivity, PC-13 cell lines with introduced ABCG2 (stated jointly). Format: cell-based, human. Conditions: PC-13 cell lines with introduced ABCG2, versus vector alone. As to the method:
as §1, §2

Data set [20] deals with MCF-7 cells expressing introduced BCRP. Conditions: report of Doyle et al. 1998; cited from earlier work.
Data set [21] relates to MCF-7/T8. The data set can be described thus: Rhodamine accumulation by flow cytometry in MCF-7/T8. Format: cell-based, human. Conditions: 5 μM Rhodamine, 30 min, FIG. 7-(c). The method, then:
(§7) The next day, the cells in a fresh medium containing 5 μM Rhodamine were cultured at 37° C. for 30 min in a CO2 incubator to incorporate the compound into the cells. After a lapse of 30 min, the cells were rapidly chilled on ice, washed once with PBS, detached using 2.5% trypsin. […] The collected cells were suspended in Hank's Balanced Salt Solutions with 1% BSA and subjected to fluorometry of the compound using a flow cytometer, FACSCalibur (Becton Dickinson and Company). The value was indicated as Intracellular Accumulation (FIG. 7-(c)).

Data set [22] relates to MCF-7/R7. In words: Rhodamine accumulation by flow cytometry in MCF-7/R7. Conditions: 5 μM Rhodamine, 30 min, FIG. 7-(c). Format: cell-based, human. The method, then: as §7

Take `O=C1c2c(O)ccc(O)c2C(=O)c2c(NCCNCCO)ccc(NCCNCCO)c21` [Mitoxantrone]: the IC50 in data set [1] stood at 7 nM; in data set [2] (Homo sapiens, HCT-116, HCT116/NR1, SRB, 72 hours with agent), 67 nM; in data set [3], 33 nM; in data set [4] (Homo sapiens, PC-13, PC13/NR13, SRB, 72 hours with agent), 160 nM; in data set [5] it was 4.4 nM; in data set [6] (Homo sapiens, HeLa#7, SRB, 72 hours with agent), 27 nM. In addition, the IC50 stood at 3.3 nM in data set [7]; 7.1 nM in data set [8] (Mus musculus, LY/NR1, SRB, 72 hours with agent); 57 nM in data set [9] (Mus musculus, LY/NR2, SRB, 72 hours with agent); 52 ± 21 nM in data set [10]. Besides, the “RR: Relative Resistance” value in [2] (IC50 HCT116/NR1 divided by IC50 HCT116) is reported as 9.6; in [4] (IC50 PC13/NR13 divided by IC50 PC13) it was 4.9; in data set [6] (IC50 HeLa#7 divided by IC50 HeLaS3), 6.1; in data set [8] (IC50 LY/NR1 divided by IC50 LY), 1.5; in data set [9] (IC50 LY/NR2 divided by IC50 LY), 17. Also, the IC50 at 72 h in data set [11] came out at 22 ± 8 nM; in data set [13] it was 31 ± 18 nM. The “Rel. Res. (relative resistance)” value in data set [12] (IC50 PC-13/ABCG2-2 divided by IC50 of vector cells) is 0.42; in [14] (IC50 PC-13/ABCG2-3 divided by IC50 of vector cells), 0.60. The “resistance compared to the PC-13 cell with introduced vector alone” value was found to be 0.42 fold in data set [12] (PC-13/ABCG2-2, Example 8) and 0.60 fold in data set [14] (PC-13/ABCG2-3, Example 8). Moreover, the “relative resistance to the cells with introduced vector alone” value is listed as 25 fold in data set [15] (FIG. 6); “showed resistance” in data set [15] (FIG. 6, listed as mitoxantrone); 3.8 fold in [16]. Besides, the results for the “Intracellular Accumulation, of that in the cell with introduced vector alone” value in [17] and in [18] were “about 20%” and “about 50%”, respectively. Also, the “resistance of cells in which ABCG2 was forcedly expressed” value in [19] is given as “did not display remarkable resistance; also recorded: not resistant”. The resistance in data set [20] is given as 30 fold.

Consider Rhodamine, for which, in data set [21], the “Intracellular Accumulation, of that in the cell with introduced vector alone” value was “about 50%”. In [22], the “Intracellular Accumulation compared with the cell with introduced vector alone” value is reported as “almost the same level”.

The record behind these values is patent US20070141619A1, “DRUG RESISTANCE-ASSOCIATED GENE AND USE THEREOF” (BANYU PHARMACEUTICAL CO., Ltd., priority 2000, published 2007).
